The text below walks through data of patent publication US10054581B1, “Inhibitors of notch signaling pathway and use thereof in treatment of cancers” (Ecole Polytechnique Federale de Lausanne (EPFL), priority 2011, dated 2018).

Entries after “also recorded” stand apart in the source; their conditions may differ.

The subject of assay [1] is HCC1187. The experiment in a line: Cell cycle analysis (Ki67 and Hoechst stain), HCC1187. The note with it: 10 μM, 48 hours. It counts as cell-based, human. The procedure: (§1) FIGS. 6A-6D show 6-(4-Tert-Butylphenoxy)Pyridin-3-Amine (I3) induces G0/G1 cell cycle arrest and apoptosis in human T cell acute lymphoblastic leukemia cell lines and human breast cancer cell line HCC1187. […] Percentage of Annexin V positive (apoptotic) cell population was measured using flow cytometry.
(§2) In addition to induction of apoptosis, the proliferative arrest observed in 6-(4-Tert-Butylphenoxy)Pyridin-3-Amine (I3) treated human leukemic cell lines and breast cancer cell line also appears to be due to cell cycle arrest in G0/G1 phase of the cell cycle. Leukemic cell lines (RPMI8402, KOPTK1 and TALL1) and breast cancer cell lines were treated with 6-(4-Tert-Butylphenoxy)Pyridin-3-Amine (I3) for 48 hours and cell cycle status was determined using Ki67 and Hoechst stain.

In assay [2] the test system is TALL1. The experiment in a line: Cell cycle analysis (Ki67 and Hoechst stain), TALL1. It counts as cell-based, human. The note with it: 10 μM. The procedure: as §1, §2
The subject of assay [3] is RPMI 8402 leukemic cells. The experiment in a line: RPMI 8402 xenotransplantation in NOD/SCID γc−/− mice. It counts as in vivo, human. The procedure: FIGS. 8A-8B show 6-(4-Tert-Butylphenoxy)Pyridin-3-Amine (I3) treatment increases latency of leukemia development in mice. […] On day 15, leukemic cells were established in the bone marrow. Mice were treated with oil or 6-(4-Tert-Butylphenoxy)Pyridin-3-Amine (I3) for every day. Mice were imaged on day 27 using Caliper IVIS (Xenogen) live imaging system. Red and blue colour indicates the intensity of luciferase signal and correlates with the number of leukemic cells. […] NOD/SCID γc^−/− mice were transplanted with 5×10^5 RPMI 8402 (luciferase expressing) cells. Leukemia development was followed using Caliper IVIS (Xenogen) live imaging system. […]
(§3) The human leukemic cell lines RPMI 8402 and HPB ALL were transduced with a lentivirus containing luciferase gene constitutively expressed downstream of a CMV promoter. […] Mice were monitored for tumor development using Caliper IVIS (Xenogen) live imaging system. […]
Similarly in a preliminary experiment, NOD/SCID γc^−/− mice were transplanted with 5×10^5 RPMI 8402 cells and treated with oil or 6-(4-Tert-Butylphenoxy)Pyridin-3-Amine (I3) following the establishment of the disease. […] Since these animals were treated with the chemical compound 6-(4-Tert-Butylphenoxy)Pyridin-3-Amine (I3) for 27 days, the intestinal tissue was analyzed to detect any toxicity in the gut.

For assay [4], the system named is KOPTK1. The experiment in a line: Cell cycle analysis (Ki67 and Hoechst stain), KOPTK1. It counts as cell-based, human. The note with it: 10 μM. The procedure:
as §1, §2

Assay [5] deals with primary human TALL samples. The experiment in a line: Primary human TALL samples treated with I3. It counts as cell-based. An excerpt: To further investigate the Notch inhibitory effect of 6-(4-Tert-Butylphenoxy)Pyridin-3-Amine (I3) in a relevant pathological condition, primary human TALL samples were profiled for the activation of Notch signalling. An accumulation of active form of Notch (NICD) was used as a biomarker for pathway activation.

The test system of assay [6] is Hedgehog signalling (Gli1). Briefly: Hedgehog signalling Gli1 luciferase assay in HeLa cells. It counts as cell-based. The note with it: HeLa cells with Gli1 and Gli1 binding site luciferase. An excerpt:
Using a similar strategy, Hedgehog signalling was activated in HeLa cells by introducing the Gli1 transcription factor and pathway activation was monitored using a promoter sequence containing Gli1 binding sites driving the luciferase expression. […] However it still needs to be determined whether the resistance of Wnt and Hedgehog signalling towards 6-(4-Tert-Butylphenoxy)Pyridin-3-Amine (I3) is cell type specific or whether it is a general phenomenon.

In assay [7] the test system is HPB ALL leukemic cells. The experiment in a line: HPB ALL xenotransplantation in NOD/SCID γc−/− mice. The note with it: 25 mg/kg daily from around day 15, imaged day 27. It counts as in vivo, human. The procedure:
FIGS. 8A-8B show 6-(4-Tert-Butylphenoxy)Pyridin-3-Amine (I3) treatment increases latency of leukemia development in mice. […] On day 15, leukemic cells were established in the bone marrow. Mice were treated with oil or 6-(4-Tert-Butylphenoxy)Pyridin-3-Amine (I3) for every day. Mice were imaged on day 27 using Caliper IVIS (Xenogen) live imaging system. Red and blue colour indicates the intensity of luciferase signal and correlates with the number of leukemic cells. […] NOD/SCID γc^−/− mice were transplanted with 5×10^5 RPMI 8402 (luciferase expressing) cells. Leukemia development was followed using Caliper IVIS (Xenogen) live imaging system. On day […], a daily treatment was started using oil (n=3) or 6-(4-Tert-Butylphenoxy)Pyridin-3-Amine (I3) (n=4). Animals were treated for 27 days (end point of the experiment).
as §3
This allowed Applicants to visualize and monitor the leukemia progression in the mice using the Caliper IVIS (Xenogen) live imaging detection system. […] Mice were monitored for leukemia development by detecting luciferase expressing leukemic cells. […]

Assay [8] deals with MZB cells in the spleen. The experiment in a line: Marginal Zone B cell development in the spleen (flow cytometry). The note with it: 25 mg/kg, 7 consecutive days, analysed day 8. It counts as in vivo, mouse. Here is the method: FIGS. 7A-7C show 6-(4-Tert-Butylphenoxy)Pyridin-3-Amine (I3) mimics genetic loss of Notch2 signalling phenotype in the spleen. Loss of Notch signalling in the spleen leads to a reduction in Marginal Zone B cells (MZB) cells in the spleen. […] Spleens were analyzed on day 8. Using B220 specific antibodies, B cells in the spleen were identified. MZB cells within the B cell compartment were detected using antibodies against CD23 and CD21 cell surface markers.
Fluorescence activated cell sorting (FACS) analyses were performed on CyAn™ ADP instrument platform for flow cytometry at Flow cytometry core facility, EPFL. DL4 and Notch1 expression in DL4- and N1-HeLa cells was determined using anti-DL4 and anti-N1 antibodies respectively. T cell development in the thymus was investigated using antibodies against CD4, CD8 and TCRβ. MZB cell development was monitored using antibodies against B220, CD21 and CD23. In brief, a single cell suspension was prepared from thymus and spleen. […]
Applicants hypothesized that 6-(4-Tert-Butylphenoxy)Pyridin-3-Amine (I3) mediated inhibition of Notch2 signalling should lead to a block in MZB cell development in the spleen. MZB cell development was assessed by flow cytometry staining of splenocytes with antibodies directed against B220, CD21 and CD23.
In general terms: Flow cytometry measures light scatter and fluorescence of single cells or particles in a stream.

[9] abbreviates: stated jointly for RPMI8402, KOPTK1 and TALL1.
The mark [10] stands for this setting: primary human TALL with accumulation of NICD.

Take `CC(C)(C)c1ccc(Oc2ccc(N)cn2)cc1` [I3, 6-(4-Tert-Butylphenoxy)Pyridin-3-Amine]: the cell cycle status result in assay [1], in assay [2] (48 hours) and in assay [4] (48 hours) was “induces an arrest in the G0/G1 phase of the cell cycle” throughout. In addition, the “increase in cells arrested in G0/G1 phase of the cell cycle” value in assay [2] (setting [9]) and in assay [4] (setting [9]) was 20-30% in each case. Besides, the “leukemia development (luciferase live imaging)” value in assay [3] (5×10^5 cells, daily treatment for 27 days after establishment of disease, preliminary experiment) is given as “blocks RPMI 8402 leukemic cell growth in xenotransplantation assay”. The “metastatic lesions in the liver (histology)” value in assay [3] (daily treatment for 27 days) is “did not develop any metastatic lesions in the liver”. The response to treatment result in assay [5] (primary human TALL samples without detectable levels of NICD) is “did not respond”. Besides, the NICD protein result in assay [5] (setting [10]) is recorded as “leads to a downregulation of this protein”. Besides, the proliferation result in assay [5] (setting [10]) is on record as “correlates with a proliferative arrest”. Further, the Hedgehog signalling result in assay [6] is on record as “did not inhibit the Hedgehog signalling cascade”. For the same compound, the “leukemia progression (luciferase live imaging)” value in assay [7] is recorded as “did not progress at the same rate as in the oil treated group”. Besides, in assay [8], the “absolute numbers of MZB cells in the spleen” value is “loss of MZB cell population in the spleen also reflects in the absolute number of MZB cells; also recorded: causes a reduction the percentage and absolute numbers of MZB cells in the spleen”. Moreover, in assay [8], the “percentage of MZB cells in the spleen” value is “leads to a reduction in the percentage of MZB cell population in the spleen; also recorded: causes a significant reduction in the percentage of MZB cells in the spleen; also recorded: causes a reduction the percentage and absolute numbers of MZB cells in the spleen”.
